Test results reported in US12578343B2, “Selective ACKR3 modulators and uses thereof” (Luxembourg Institute of Health (LIH), priority 2019, dated 2026).

How the values were obtained:
smNPCs = test: Uptake of labelled dynorphin A (1-13) by smNPCs, imaging flow cytometry; format: cell-based, human; conditions: 3 μM, 15 minutes pre-treatment
Procedure: U87 cells derived from human brain glioblastoma were obtained through the NIH AIDS Reagent Program from Dr. Deng and Dr. Littman. U87 stably expressing ACKR3 and CXCR4 were generated as previously described in Szpakowska, M. et al. Different contributions of chemokine N-terminal features attest to a different ligand binding mode and a bias towards activation of ACKR3/CXCR7 compared with CXCR4 and CXCR3. Br J Pharmacol 175, 1419-1438 (2018). U87 cells were grown in Dulbecco's modified Eagle medium (DMEM) supplemented with 15% foetal bovine serum and penicillin/streptomycin (100 Units/ml and 100 μg/ml). U87-ACKR3 and U87-CXCR4 were maintained under puromycin (1 μg/ml) selective pressure. smNPCs (small molecule neural precursor cells) derived from a healthy donor (C1-1) whose informed consent was obtained, were grown on Geltrex™-coated surface in N2B27 medium supplemented with 0.5 μM Purmorphamine, 3 μM CHIR 99021 and 150 μM ascorbic acid. N2B27 medium consisted of DMEM/F12 and NeuroBasal medium 50:50 with 0.5% N2 supplement, 1% B27 supplement lacking vitamin A, 1% GlutaMAX and 1% penicilin/streptomycin. Medium was renewed every other day.
Cells were distributed into 96-well plates (2×10^5 cells/well in Opti-MEM for U87 and U87-ACKR3 and 3×10^5 cells/well in N2B27 medium for smNPCs). […] For comparison of labelled opioid peptide-uptake by ACKR3 or classical opioid receptors, 1.2×10^6 U87 cells were seeded in 10-cm dishes and transfected 48 hours later with 4 μg pcDNA3.1 plasmid encoding ACKR3 or KOR, MOR or NOP. 48 hours post transfection, cells were harvested and treated as described above. Dead cells were excluded using Zombie NIR or Zombie Green viability dye (BioLegend) for FAM-labelled peptides and Cy5-labelled peptides, respectively. Images of 1×10^4 in-focus, living single cells were acquired with an ImageStream MKII imaging flow cytometer (Amnis) using 40× magnification (60× magnification for smNPCs). Samples were analysed using Ideas6.2 software. The number of spots per cell was determined using a mask-based software wizard.

[1] = test system: 24 other chemokine receptors; test: β-arrestin recruitment to all other chemokine receptors (panel, NanoBiT, U87 cells); format: cell-based, human; conditions: 3 μM
Procedure: (§1) In brief, 1.2×10^6 U87 cells were plated in 10 cm-culture dishes and 48 hours later co-transfected with pNBe vectors encoding GPCRs C-terminally tagged to SmBiT and human β-arrestin-1 or -2 or mini G proteins (mG, engineered GTPase domains of Gα subunits,) N-terminally fused to LgBiT. 48 hours post-transfection cells were harvested, incubated 25 minutes at 37° C. with Nano-Glo Live Cell substrate diluted 200-fold and distributed into white 96-well plates (5×10^4 cells per well). Ligand-induced, β-arrestin and mG recruitment to GPCRs was evaluated with a Mithras LB940 luminometer (Berthold Technologies) for 20 minutes. For concentration-response curves, the signal recorded with a saturating concentration of full agonist for each receptor was set as 100%.

[2] = test system: rat locus coeruleus neurons; format: cell-based
Procedure: 1.9. Ex Vivo Rat Neuron Depolarization
Adult male Wistar rats (6 to 8-week old) were housed at room temperature in groups of three or four with a 12:12 hour light-dark cycle. All animals had access to ad libitum food and water. All procedures were carried out in accordance with guidelines of the European Communities Council Directive of 24 Nov. 1986 (86609EE) and were accepted by the Ethics Committee for Animal Use of the University of Liège (protocol 2061). All efforts were made to minimize animal suffering.
1.9.2. Brain Explant Preparation and Recording Procedures
Rats were anaesthetized with chloral hydrate (400 mg/kg, i.p.) and placed under a cap with oxygenated air (95% O2, 5% CO2) two minutes prior to decapitation. After decapitation, the brain was rapidly removed and placed in ice cold (˜2° C.) oxygenated artificial cerebrospinal fluid (aCSF) of the following composition: NaCl 130 mM, KCl 3.5 mM, NaH2PO4 1.25 mM, NaHCO3 24 mM, Glucose 10 mM, CaCl2 2 mM, MgSO4 1.25 mM. A block of tissue containing the pons was placed in a vibrating blade microtome (Vibratome 1000 Plus, Sectioning System) and a slice containing the locus coeruleus (LC) immediately rostral to the fourth ventricle and the VIIth nerve, used as anatomical landmarks, was cut coronally (400 μm thick). The slice was placed on a nylon mesh in a recording chamber (volume: 0.5 ml) where it was superfused by oxygenated aCSF (34.0±0.5° C.) at a rate of 2 to 3 ml/min. The LC was recognized as a translucent region during transillumination, lateral to the fourth ventricle. All experiments were performed in oxygenated aCSF with synaptic blockers consisting of 10 μM CNQX, 10 μM SR95531, 1 μM MK801, and 1 μM CGP55845, which block AMPA/Kainate, GABAA, NMDA, and GABAB receptors, respectively. This ensured that the spontaneous firing of the neurons was only due to its endogenous pace making.
Extracellular single cell recordings of LC neurons were performed with glass microelectrodes filled with aCSF (resistance 10-20 MΩ). Signals were passed through an impedance adapter and were amplified 1000× using a home-made amplifier. […] Data were collected and analysed with the Spike 2 software (Cambridge Electronic Design). […] The duration of the extracellularly recorded action potentials was 2-3 ms. Drugs and peptides were applied for at least 10 minutes.
The mean firing rate over 1 minute was calculated during each condition. Next, the inhibition of firing by the peptides and drugs used (LIH383 and dynorphin) was quantified as the % of total inhibition. For this purpose, present inventors considered the mean firing rate during the last minute of each condition (control, LIH383 alone, LIH383 plus a given concentration of dynorphin).

ACKR3 = ACKR3 (Homo sapiens, UniProt P25106); format: cell-based; set-up: expressed in transfected cells; host or cells: U87 cells, transient co-transfection of pNBe vectors
DOR = biological target: T1, DOR (Homo sapiens, UniProt P41143); test: β-arrestin-1 recruitment to DOR (NanoBiT, U87 cells); format: cell-based; conditions: concentrations as high as 3 μM
T1 construct: expressed in transfected cells; host or cells: U87 cells, transient co-transfection of pNBe vectors
Procedure: as §1

Sequence of ACKR3 (P25106 whole entry): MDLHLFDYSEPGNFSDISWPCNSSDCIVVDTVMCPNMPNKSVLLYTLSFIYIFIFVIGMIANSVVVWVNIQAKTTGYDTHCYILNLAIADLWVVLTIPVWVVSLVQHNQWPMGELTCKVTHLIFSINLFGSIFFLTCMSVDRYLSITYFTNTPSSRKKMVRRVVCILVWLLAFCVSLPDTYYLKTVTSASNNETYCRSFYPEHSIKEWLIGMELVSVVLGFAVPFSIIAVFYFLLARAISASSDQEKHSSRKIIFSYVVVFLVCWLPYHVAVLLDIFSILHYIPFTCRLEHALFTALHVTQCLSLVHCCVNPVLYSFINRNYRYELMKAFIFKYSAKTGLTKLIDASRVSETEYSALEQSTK
Sequence of ACKR3 (P49407 whole entry partner): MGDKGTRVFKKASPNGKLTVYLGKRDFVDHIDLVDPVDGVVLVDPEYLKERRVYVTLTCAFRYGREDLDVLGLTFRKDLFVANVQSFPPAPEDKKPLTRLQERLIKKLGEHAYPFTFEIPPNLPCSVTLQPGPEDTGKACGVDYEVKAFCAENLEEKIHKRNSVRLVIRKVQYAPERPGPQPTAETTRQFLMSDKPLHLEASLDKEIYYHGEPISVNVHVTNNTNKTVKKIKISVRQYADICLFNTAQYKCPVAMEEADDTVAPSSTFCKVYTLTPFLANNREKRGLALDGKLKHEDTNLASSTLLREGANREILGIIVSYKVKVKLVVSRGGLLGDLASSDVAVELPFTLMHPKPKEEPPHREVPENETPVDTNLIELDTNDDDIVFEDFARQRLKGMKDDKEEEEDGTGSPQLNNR
T1 sequence (P41143 whole entry): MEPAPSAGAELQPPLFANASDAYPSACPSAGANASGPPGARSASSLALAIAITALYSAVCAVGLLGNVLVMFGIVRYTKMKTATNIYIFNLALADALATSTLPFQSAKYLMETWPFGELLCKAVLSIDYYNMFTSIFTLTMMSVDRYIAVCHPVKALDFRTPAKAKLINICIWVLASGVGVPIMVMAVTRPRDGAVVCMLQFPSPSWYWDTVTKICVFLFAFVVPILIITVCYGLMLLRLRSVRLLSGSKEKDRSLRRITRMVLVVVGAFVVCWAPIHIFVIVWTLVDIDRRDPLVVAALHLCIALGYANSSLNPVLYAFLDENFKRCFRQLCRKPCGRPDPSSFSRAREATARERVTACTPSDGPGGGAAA

With `CSCC[C@H](NC(=O)[C@H](Cc1ccccc1)NC(=O)CNC(=O)CNC(=O)[C@@H](N)Cc1ccccc1)C(=O)N[C@@H](CCCNC(=N)N)C(=O)N[C@@H](CCCNC(=N)N)C(=O)N[C@@H](CCCCN)C(N)=O` [LIH383] the “effect of pretreatment on uptake of labelled dynorphin A (1-13) by smNPCs” value (smNPCs) was “significantly reduced”, the “β-arrestin recruitment to the other chemokine receptors” value [1] was “no activation or inhibition” and the “effect of pretreatment on dynorphin A-induced depolarization inhibition” value ([2]; LIH383 1 or 3 μM) was “significant increase of depolarization inhibition and an apparent improved potency of dynorphin A towards its classical receptors”. For the same compound, the “inhibition of neuronal firing” value ([2]; concentration as high as 3 μM) was “did not lead to significant inhibition of neuronal firing”, the “EC50 (range in words)” value (ACKR3) was “subnanomolar range” and the “potency relative to known ACKR3 agonists such as compound 18” value (ACKR3) was 20 times. The “activation or inhibition of DOR” value (DOR) was “no activation or inhibition”.
